According to ChEMBL document CHEMBL1201862, “PubChem BioAssay data set” (2004):
Calls of active or inactive are those of the source.

Tests used:
[1] = target: T1, Beta-2 adrenergic receptor (Homo sapiens, UniProt P07550); test: Dose response for HTS for Beta-2AR agonists via FAP method from Powderset1.; format: functional
cells [2] = format: functional, cell-based
[3] = target: T1, Beta-2 adrenergic receptor; test: ADRB2 activation measured by internalization – cell-based, FAP fluorogen, flow cytometry, cherry pick 1, dose response (AID 588763); format: functional
cells [4] = format: functional, cell-based; remark: listed apart in the source
[5] = Luminescence Cell-Based Dose Retest to Confirm Inhibitors of Cancer Stem Cells. [Related pubchem assays (depositor defined):AID2717, AID2721]; format: functional; conditions: Homo sapiens
[6] = Luminescence Cell-Based Dose Response HTS to Identify Activators of Luciferase Translation or Activity in H4 […] Cells. [Related pubchem assays: 1829 (Project Summary), 1814 (Primary HTS)]; format: functional
HEK293 [7] = test: HEK293T cell viability loss, resazurin readout – resazurin fluorescence, cytotoxicity control for NF-kB activator project, SAR follow-up (AID 493251); format: functional, cell-based; conditions: Homo sapiens
Vero [8] = test: cells; format: functional, cell-based; conditions: Chlorocebus sabaeus
Jurkat = test: SAR Analysis of small molecule inhibitors of T-cell specific antigen receptor-induced NF-kB activation in a Jurkat cell line using a luminescence assay - Set 2. [Related pubchem assays (depositor defined):AID435003, AID435012, AID465]; format: functional, cell-based; conditions: Homo sapiens
[9] = Luminescence Cell-Based Dose Confirmation HTS to Identify Activators of 5'UTR Stem-Loop Driven Alpha-Synuclein mRNA Translation in H4 Neuroglioblastoma Cells. [Related pubchem assays: 1829 (Project Summary), 1814 (Primary HTS)]; format: functional
[10] = target: SWI/SNF-related matrix-associated actin-dependent regulator of chromatin subfamily A member 2 (Homo sapiens, UniProt P51531); test: Luminescence-based cell-based high throughput dose response assay to identify activators of the function of SWI/SNF related, matrix associated, actin dependent regulator of chromatin, subfamily a, member 2 (SMARCA2, BRM).; format: functional
SWI/SNF-related matrix-associated actin-dependent regulator of chromatin subfamily A member 2, sequence (P51531 whole entry): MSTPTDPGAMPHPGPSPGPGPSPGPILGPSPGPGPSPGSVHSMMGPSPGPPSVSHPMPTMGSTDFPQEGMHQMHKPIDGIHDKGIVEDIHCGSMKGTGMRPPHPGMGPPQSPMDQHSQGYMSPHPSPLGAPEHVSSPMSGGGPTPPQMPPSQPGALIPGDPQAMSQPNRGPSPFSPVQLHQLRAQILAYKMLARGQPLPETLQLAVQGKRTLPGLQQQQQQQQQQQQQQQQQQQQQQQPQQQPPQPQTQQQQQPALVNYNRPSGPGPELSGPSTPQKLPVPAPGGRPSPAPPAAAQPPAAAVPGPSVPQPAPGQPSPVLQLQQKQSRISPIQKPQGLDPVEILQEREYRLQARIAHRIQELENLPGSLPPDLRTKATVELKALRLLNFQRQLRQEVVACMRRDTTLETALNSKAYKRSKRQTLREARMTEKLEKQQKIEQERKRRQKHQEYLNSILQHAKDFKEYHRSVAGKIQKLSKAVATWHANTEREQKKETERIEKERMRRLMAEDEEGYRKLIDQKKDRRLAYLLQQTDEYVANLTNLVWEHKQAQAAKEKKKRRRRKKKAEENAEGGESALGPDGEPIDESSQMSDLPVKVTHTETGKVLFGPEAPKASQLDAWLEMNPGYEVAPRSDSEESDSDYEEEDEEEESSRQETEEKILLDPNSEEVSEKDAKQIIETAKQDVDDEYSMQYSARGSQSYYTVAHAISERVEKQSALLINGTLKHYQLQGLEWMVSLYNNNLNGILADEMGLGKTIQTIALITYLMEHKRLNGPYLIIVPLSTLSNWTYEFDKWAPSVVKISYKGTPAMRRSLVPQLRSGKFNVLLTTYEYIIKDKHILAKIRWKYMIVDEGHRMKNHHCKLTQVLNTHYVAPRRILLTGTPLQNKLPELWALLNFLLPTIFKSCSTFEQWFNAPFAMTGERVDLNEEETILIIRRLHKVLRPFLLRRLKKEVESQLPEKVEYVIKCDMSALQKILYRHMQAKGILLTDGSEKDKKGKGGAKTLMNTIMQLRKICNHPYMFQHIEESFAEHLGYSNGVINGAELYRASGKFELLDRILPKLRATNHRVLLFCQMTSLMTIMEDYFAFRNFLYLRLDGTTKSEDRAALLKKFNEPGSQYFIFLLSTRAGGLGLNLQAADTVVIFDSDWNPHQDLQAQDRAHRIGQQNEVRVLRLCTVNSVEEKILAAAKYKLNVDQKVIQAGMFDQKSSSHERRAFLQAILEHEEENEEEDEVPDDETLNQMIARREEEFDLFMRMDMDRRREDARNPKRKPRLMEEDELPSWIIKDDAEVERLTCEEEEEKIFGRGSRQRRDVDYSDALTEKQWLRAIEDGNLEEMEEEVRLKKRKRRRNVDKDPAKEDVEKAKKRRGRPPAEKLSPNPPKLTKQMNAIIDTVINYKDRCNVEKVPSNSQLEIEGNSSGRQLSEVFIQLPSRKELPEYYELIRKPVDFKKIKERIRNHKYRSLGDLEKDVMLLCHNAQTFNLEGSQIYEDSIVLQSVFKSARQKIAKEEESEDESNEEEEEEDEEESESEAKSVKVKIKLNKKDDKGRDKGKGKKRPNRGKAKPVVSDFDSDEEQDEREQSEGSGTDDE

Vero [11] = test: cells; format: functional; conditions: Chlorocebus sabaeus
HEK293 [12] = test: SAR Analysis of small molecule inhibitors of T-cell specific antigen receptor-induced NF-kB activation in a HEK-293T cell line using a luminescence assay - Set 2. [Related pubchem assays (depositor defined):AID435003, AID435012, AID489026]; format: functional, cell-based; conditions: Homo sapiens
H4 = test: Luminescence Cell-Based Dose Response HTS to Identify Activators of 5'UTR Stem-Loop Driven Prion Protein mRNA Translation in H4 Neuroglioblastoma Cells. [Related pubchem assays: 1829 (Project Summary), 1814 (Primary HTS)]; format: functional; conditions: Homo sapiens
[13] = Counterscreen for activators of the function of SWI/SNF related, matrix associated, actin dependent regulator of chromatin, subfamily a, member 2 (SMARCA2, BRM): Luminescence-based cell-based high throughput dose response assay to identify non-selective compounds using the VP16 reporter assay.; format: functional
[14] = NIH-3T3 fibroblast cytotoxicity, dose response, cytotoxicity control, cell-based, fluorescence, Alamar Blue, secondary assay (AID 2327); format: functional;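 also: NIH-3T3 mouse fibroblasts cultured with fluconazole at 8 µg/mL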
[15] = target: T2, Serine/threonine-protein phosphatase (Candida dubliniensis (strain CD36 / CBS 7987 / NCPF 3949 / NRRLY-17841) (Yeast), UniProt B9W6M3); test: Fluorescence Cell-Based Secondary Assay to Identify Inhibitors of Calcineurin. [Related pubchem assays (depositor defined):AID1979, AID2007]; format: functional
T2 sequence (B9W6M3 whole entry): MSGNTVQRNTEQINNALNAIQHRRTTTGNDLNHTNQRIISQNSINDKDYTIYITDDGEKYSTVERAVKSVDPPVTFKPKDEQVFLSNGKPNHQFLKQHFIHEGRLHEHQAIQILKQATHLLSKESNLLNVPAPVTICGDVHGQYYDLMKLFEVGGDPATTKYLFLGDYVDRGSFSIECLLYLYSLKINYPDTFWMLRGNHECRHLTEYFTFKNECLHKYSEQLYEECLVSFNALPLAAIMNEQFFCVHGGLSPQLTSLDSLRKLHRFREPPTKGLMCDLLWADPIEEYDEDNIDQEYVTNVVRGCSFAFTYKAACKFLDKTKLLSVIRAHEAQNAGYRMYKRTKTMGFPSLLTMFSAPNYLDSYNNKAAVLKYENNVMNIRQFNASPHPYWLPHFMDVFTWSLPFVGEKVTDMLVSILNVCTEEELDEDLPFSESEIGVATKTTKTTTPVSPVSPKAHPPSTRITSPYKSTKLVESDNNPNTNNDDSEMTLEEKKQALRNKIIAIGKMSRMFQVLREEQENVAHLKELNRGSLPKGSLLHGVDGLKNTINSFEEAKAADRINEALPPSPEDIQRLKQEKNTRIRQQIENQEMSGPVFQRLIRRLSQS

[16] = Fluorescence-based cell-based high throughput dose response assay for inhibitors of the interaction of nucleotide-binding oligomerization domain containing 2 (NOD2) and the receptor-interacting serine-threonine kinase 2 (RIPK2).; format: functional; conditions: Homo sapiens
[17] = target: T3, Sphingosine 1-phosphate receptor 4 (Homo sapiens, UniProt O95977); test: Fluorescence dose response cell-based high throughput screening assay for antagonists of the Sphingosine 1-Phosphate Receptor 4 (S1P4). [Related pubchem assays: 1524 (Confirmation in triplicates.), 1510 (Primary screen.)]; format: functional
T3 sequence (O95977 whole entry): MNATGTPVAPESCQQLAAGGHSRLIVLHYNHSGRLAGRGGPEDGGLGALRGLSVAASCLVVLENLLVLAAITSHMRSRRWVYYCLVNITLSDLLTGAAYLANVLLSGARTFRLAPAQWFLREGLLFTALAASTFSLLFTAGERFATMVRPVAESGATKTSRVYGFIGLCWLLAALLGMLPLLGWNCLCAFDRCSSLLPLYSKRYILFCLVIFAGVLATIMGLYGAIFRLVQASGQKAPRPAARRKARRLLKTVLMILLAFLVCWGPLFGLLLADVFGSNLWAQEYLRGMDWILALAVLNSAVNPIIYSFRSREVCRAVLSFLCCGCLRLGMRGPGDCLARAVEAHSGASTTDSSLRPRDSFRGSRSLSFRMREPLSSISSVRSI

[18] = target: Heat shock protein HSP 90-alpha (Homo sapiens, UniProt P07900); format: functional, organism-based
[19] = fluconazole-exposed Candida albicans growth modulators – fluorescence, retest, confirmation (AID 2467); format: functional, cell-based
[20] = target: ATP-dependent molecular chaperone HSP82 (Candida albicans (strain WO-1) (Yeast), UniProt C4YTQ8); test: steroid-induced GRE reporter decrease in yeast – S. cerevisiae, luminescence, Hsp90 inhibitor project, dose response (AID 2400); format: functional, cell-based;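 also: beta-galactosidase luminescence from glucocorticoid response element reporter as proxy for Hsp90 function; inhibitor potency where signal loss means Hsp90 inhibition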
ATP-dependent molecular chaperone HSP82, sequence (C4YTQ8 whole entry): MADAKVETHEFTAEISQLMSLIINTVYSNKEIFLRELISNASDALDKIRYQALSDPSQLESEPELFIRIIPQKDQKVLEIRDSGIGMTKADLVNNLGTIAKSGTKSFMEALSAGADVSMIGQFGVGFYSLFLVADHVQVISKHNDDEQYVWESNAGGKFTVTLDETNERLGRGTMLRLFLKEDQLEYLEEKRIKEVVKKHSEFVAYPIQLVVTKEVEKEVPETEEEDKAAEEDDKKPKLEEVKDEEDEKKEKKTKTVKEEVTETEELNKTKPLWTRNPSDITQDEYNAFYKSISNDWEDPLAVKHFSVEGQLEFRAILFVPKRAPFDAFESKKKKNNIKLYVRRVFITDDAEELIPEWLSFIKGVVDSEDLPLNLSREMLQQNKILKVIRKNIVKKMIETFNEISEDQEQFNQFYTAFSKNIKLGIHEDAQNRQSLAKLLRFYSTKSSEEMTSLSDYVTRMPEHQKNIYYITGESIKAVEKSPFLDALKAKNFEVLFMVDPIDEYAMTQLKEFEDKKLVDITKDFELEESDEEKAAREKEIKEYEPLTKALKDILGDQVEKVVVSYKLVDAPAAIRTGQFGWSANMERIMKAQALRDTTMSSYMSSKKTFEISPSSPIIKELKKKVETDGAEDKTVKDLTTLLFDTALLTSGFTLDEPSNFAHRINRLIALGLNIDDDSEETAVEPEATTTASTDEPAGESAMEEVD

[21] = microbe, parasite or virus in culture; format: functional; conditions: Mycobacterium tuberculosis
[22] = target: T2, Serine/threonine-protein phosphatase; test: blockers of CaCl2-induced CDRE-lacZ signaling – S. cerevisiae, luminescence, secondary, dose response (AID 2388); format: functional, cell-based;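 also: yeast reporter cells carrying a calcineurin-responsive lacZ construct stimulated with calcium chloride; luminescent beta-galactosidase reporter signal in whole cells rather than isolated phosphatase activity; potency for inhibition where a drop in reporter signal means calcineurin blockade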
[23] = target: Sphingosine 1-phosphate receptor 1 (Homo sapiens, UniProt P21453); format: functional;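 also: Tango beta-arrestin reporter U2OS cells stimulated with S1P near its EC80; inhibitor potency meaning antagonism of receptor activation by the natural agonist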
Sphingosine 1-phosphate receptor 1, sequence (P21453 whole entry): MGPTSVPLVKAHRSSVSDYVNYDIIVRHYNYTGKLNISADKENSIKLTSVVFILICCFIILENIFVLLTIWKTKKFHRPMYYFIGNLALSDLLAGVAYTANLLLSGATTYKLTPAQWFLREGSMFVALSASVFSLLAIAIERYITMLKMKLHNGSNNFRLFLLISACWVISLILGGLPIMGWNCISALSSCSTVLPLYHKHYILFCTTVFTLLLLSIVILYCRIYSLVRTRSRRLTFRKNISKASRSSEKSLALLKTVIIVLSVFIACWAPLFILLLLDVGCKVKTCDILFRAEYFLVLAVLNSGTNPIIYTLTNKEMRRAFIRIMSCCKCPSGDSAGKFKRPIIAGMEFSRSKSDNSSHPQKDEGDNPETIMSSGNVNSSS

[24] = target: Neurotensin receptor type 1 (Homo sapiens, UniProt P30989); format: functional;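 also: Image-based confirmatory dose-response assay measuring agonist activity at NTR1; NTR1-expressing U2OS osteosarcoma cells imaged for beta-arrestin GFP spot formation; agonist potency where compounds increase beta-arrestin recruitment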
Neurotensin receptor type 1, sequence (P30989 whole entry): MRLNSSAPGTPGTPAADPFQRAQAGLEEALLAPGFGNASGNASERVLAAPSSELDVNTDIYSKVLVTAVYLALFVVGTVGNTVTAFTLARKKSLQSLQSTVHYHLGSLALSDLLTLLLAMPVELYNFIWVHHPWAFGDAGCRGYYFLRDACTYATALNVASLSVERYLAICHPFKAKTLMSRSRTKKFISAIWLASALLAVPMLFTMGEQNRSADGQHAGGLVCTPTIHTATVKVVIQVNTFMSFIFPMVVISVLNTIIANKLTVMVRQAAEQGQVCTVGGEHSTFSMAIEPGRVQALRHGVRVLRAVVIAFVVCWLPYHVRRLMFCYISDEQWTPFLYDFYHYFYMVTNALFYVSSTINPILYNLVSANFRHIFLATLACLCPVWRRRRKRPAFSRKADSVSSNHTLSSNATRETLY

Beta-lactamase [25] = target: Beta-lactamase (Salmonella choleraesuis (strain SC-B67), UniProt Q5J463); test: Epi-absorbance-based counterscreen for selective VIM-2 inhibitors: dose response biochemical high throughput screening assay to identify inhibitors of TEM-1 serine-beta-lactamase.
Beta-lactamase (Salmonella choleraesuis (strain SC-B67), UniProt Q5J463), sequence (Q5J463 whole entry): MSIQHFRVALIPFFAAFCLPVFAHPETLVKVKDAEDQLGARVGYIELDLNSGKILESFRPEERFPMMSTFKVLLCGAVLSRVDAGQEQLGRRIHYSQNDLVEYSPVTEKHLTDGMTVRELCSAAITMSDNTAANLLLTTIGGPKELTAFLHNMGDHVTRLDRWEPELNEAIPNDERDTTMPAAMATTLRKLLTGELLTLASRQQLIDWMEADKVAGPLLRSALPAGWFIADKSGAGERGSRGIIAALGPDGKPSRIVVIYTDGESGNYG

Beta-lactamase [26] = target: T4, Beta-lactamase (Pseudomonas aeruginosa, UniProt Q79MP6); test: inhibition of IMP-1 beta-lactamase activity – biochemical, epi-absorbance, selectivity assay for VIM-2 inhibitor project, dose response (AID 1920)
T4 sequence (Q79MP6 whole entry): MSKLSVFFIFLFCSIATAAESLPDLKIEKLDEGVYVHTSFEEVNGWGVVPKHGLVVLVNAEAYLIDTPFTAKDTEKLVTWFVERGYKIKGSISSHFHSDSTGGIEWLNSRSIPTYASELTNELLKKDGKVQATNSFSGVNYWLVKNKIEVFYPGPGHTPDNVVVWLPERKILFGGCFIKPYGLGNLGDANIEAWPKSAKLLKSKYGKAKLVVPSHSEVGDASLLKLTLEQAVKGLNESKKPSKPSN

Beta-lactamase [27] = target: T4, Beta-lactamase; test: […] counterscreen for selective VIM-2 inhibitors: dose response biochemical high throughput screening assay to identify inhibitors of IMP-1 metallo-beta-lactamase.

T1 sequence (P07550 whole entry): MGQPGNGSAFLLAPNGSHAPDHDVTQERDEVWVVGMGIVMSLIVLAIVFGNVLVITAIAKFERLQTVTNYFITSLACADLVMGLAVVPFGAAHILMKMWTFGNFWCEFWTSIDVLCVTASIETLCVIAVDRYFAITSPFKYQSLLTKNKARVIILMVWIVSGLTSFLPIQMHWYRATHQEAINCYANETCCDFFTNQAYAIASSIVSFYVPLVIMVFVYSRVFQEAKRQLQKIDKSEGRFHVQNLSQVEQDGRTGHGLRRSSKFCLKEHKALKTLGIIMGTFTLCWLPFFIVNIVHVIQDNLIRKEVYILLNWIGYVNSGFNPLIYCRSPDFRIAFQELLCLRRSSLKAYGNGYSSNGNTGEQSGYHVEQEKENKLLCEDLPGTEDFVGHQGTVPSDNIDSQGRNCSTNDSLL

Q: For `O=C(c1ccc(OC2CCN(Cc3ccc(F)cc3)CC2)cc1)N1CCCC1`, which EC50 [1] is on record?
A: The EC50 was 5.28 µM (active).

Q: What about the EC50 (cells [2]) of the same compound?
A: Its EC50 is > 350 µM (not active).

Q: And the EC50 [3]?
A: The EC50 was 1.6 µM (active).

Q: What about the EC50 (cells [4]) of the same compound?
A: The EC50 was > 350 µM (not active).

Q: Which results are given for `CC(=O)c1ccc(NC(=O)c2ccc([N+](=O)[O-])o2)cc1`?
A: AC50 [5]: 4.95 µM (active); EC50 [6]: > 120 µM (not active); IC50 (HEK293 [7]): 51.8 µM (inactive); IC50 (Vero [8]): > 25 µM (active); IC50 (Jurkat): 35.2 µM (inactive); EC50 [9]: > 120 µM (not active); EC50 [10]: > 91.1 µM (inactive); CC50 (Vero [11]): 14.3 µM (active); IC50 (HEK293 [12]): 38.9 µM (inactive); EC50 (H4): > 120 µM (not active); EC50 [13]: > 91.1 µM (inactive)

Q: With `CCc1ccc2c(c1)/C(=C/C(=O)c1cccs1)C(=O)N2` as the compound, how does the EC50 [14] read?
A: The EC50 was > 150 µM (inactive).

Q: And the EC50 [15]?
A: The EC50 was 5.99 µM (active).

Q: What about the IC50 [16] of the same compound?
A: Its IC50 is 4.53 µM (active).

Q: What about the IC50 [17] of the same compound?
A: Its IC50 is 1.46 µM (active).

Q: And the AC50 [18]?
A: Its AC50 is 4.18 µM (active).

Q: What about the EC50 [19] of the same compound?
A: Its EC50 is 6.49 µM (active).

Q: What about the EC50 [20] of the same compound?
A: The EC50 was 1.25 µM (active).

Q: And the CC50 [21]?
A: The CC50 was 7.23 µM (active).

Q: What about the EC50 [22] of the same compound?
A: Its EC50 is > 180 µM (inactive).

Q: What about the IC50 [23] of the same compound?
A: The IC50 was 20.9 µM (not active).

Q: And the EC50 [24]?
A: Its EC50 is 17.7 µM (active).

Q: With `COCC(=O)Nc1nnc(SCC(=O)NCc2cccs2)s1` as the compound, how does the IC50 (Beta-lactamase [25]) read?
A: Its IC50 is > 59.6 µM (inactive).

Q: What about the IC50 (Beta-lactamase [26]) of the same compound?
A: Its IC50 is > 59.6 µM (inactive).

Q: What about the IC50 (Beta-lactamase [27]) of the same compound?
A: The IC50 was > 59.6 µM (inactive).
